Laboratory results published in patent US7985745B2, “Method for pain treatment” (Abbott Laboratories, priority 2006, dated 2011).
Read-outs that look alike come from different tables or passages of the source.

Experiments:
thermal hyperalgesia = test: Complete Freund's adjuvant-induced thermal hyperalgesia; format: in vivo, rat; conditions: 30 minutes before testing, 48 hours after CFA, thermal stimulus
Method: To assess the effectiveness of representative compounds of the invention against hyperalgesia, animals were tested in an acute model of adjuvant-induced thermal hyperalgesia (see for example, Honore, et al. Behavioural Brain Research 167 (2006) 355-364; Carroll, et al. US Patent application US 2006/0025614A 1). To prepare animals for the model, a solution of Complete Freund's adjuvant (150 microliters of a 50% aqueous solution, Sigma Chemical Company, St. Louis, Mo.) was injected into the plantar surface of test paw of the animal (rat). Rats so injected develop a hyperalgesia to thermal stimulation which is assessed 48 hours after injection of the Complete Freund's adjuvant using a commercially available paw thermal stimulator (UARDG, Dept. of Anesthesiology, Univ. California at San Diego, La Jolla, Calif.). For testing, rats were placed individually in a so-called ‘hot box’ (i.e. Plexiglass cubicles mounted on a glass surface) maintained at 30° C., and allowed a 30 minute habituation period. A thermal stimulus, in the form of radiant heat emitted from a focused projection bulb, was then applied to the plantar surface of each hind paw. The stimulus current was maintained (e.g. at 4.5 Amp) and the time of exposure set to limit the extent of possible tissue damage (e.g. maximum of 20 seconds exposure to thermal heating from the projection bulb). The time (in seconds) for the withdrawal of the paw that was injected with the Complete Freund's adjuvant (CFA) and subjected to the thermal stimulus was recorded, and this was compared to the time (in seconds) for withdrawal of the uninjected paw subjected to the same thermal stimulus. […] To test the effect of a compound on the hyperalgesia, the test compound is dissolved in a vehicle (e.g. water or saline) and administered by i.p. (intraperitoneal) injection 30 minutes before the testing of the animal's response to the thermal stimulus to the paws. The antihyperalgesic activity of the compound in blocking the pain is shown by an increase in the time to withdraw the CFA-injected paw subjected to thermal stimulus. Experiments are done with single-dose and escalating-dosages of the test compound, and dose response curves constructed to determine ED50 values.

histamine H4 receptor [1] = target: T1, histamine H4 receptor (Homo sapiens, UniProt Q9H3N8); test: FLIPR Ca2+ assay in HEK-293 cells stably expressing histamine H4 receptor and Gαqi5; format: cell-based; conditions: Kb for antagonists and inverse agonists, EC50 for partial agonists; block of histamine-induced Ca2+ increase
T1 construct: expressed in transfected cells; host or cells: HEK-293 cells, transient transfection with pCINeo vector; membranes
T1 sequence (Q9H3N8 whole entry, species assumed): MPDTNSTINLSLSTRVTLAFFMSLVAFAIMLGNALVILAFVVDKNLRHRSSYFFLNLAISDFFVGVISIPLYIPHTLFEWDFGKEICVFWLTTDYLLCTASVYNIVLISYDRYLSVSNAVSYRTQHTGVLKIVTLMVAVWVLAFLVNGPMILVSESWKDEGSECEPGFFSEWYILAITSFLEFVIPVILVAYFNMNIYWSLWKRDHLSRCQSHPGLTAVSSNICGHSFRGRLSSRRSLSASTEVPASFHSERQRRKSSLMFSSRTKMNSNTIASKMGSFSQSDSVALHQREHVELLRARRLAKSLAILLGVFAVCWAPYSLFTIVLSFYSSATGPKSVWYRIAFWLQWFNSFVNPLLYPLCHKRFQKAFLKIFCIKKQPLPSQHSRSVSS
From the text: Histamine H4 receptors from mammalian species have been cloned. Methods to clone, express, and assess the potency and functional activity of such cloned genes are well known to those skilled in the art of molecular biology. […] Before testing, cells are loaded with a Ca^+2 sensitive fluorescent dye, in this case Fluo-4. In the case of partial agonist or agonist ligands, addition of compound to the cells leads to the increase in intracellular Ca^+2 which is detected by FLIPR (Fluorescence Imaging Plate Reader; Molecular Devices, Sunnyvale, Calif.) technology. […] The fluorescence intensities measured before addition of the test compound are subtracted from the fluorescence intensities at later time points. Peak response values determined at each concentration of ligand are expressed as a percentage of the response obtained with the full agonist histamine. Concentration versus response data are analyzed to obtain compound potency as Kb values for antagonists and inverse agonists and as EC50 values for partial agonists.

histamine H4 receptor [2] = target: T1, histamine H4 receptor; test: 3H-histamine competition binding assay, membranes of transfected HEK-293 cells
Method: In this assay, membranes were prepared from HEK-293 cells transiently transfected with the pCINeo expression vector harboring the histamine H4 receptor by homogenization of the cells on ice in TE buffer (50 mM Tris-HCl buffer, pH 7.4, containing 5 mM EDTA), 1 mM benzamidine, 2 μg/ml aprotinin, 1 μg/ml leupeptin, and 1 μg/ml pepstatin. The homogenate was centrifuged at 40,000 g for 20 minutes at 4° C. This step was repeated, and the resulting pellet was resuspended in TE buffer. Aliquots were frozen at −70° C. until needed. On the day of assay, membranes were thawed and diluted with TE buffer. Competition radioligand binding assays were performed with increasing concentrations of test compound in the presence of [^3H]-histamine incubated at 25° C. for 1 h in a total volume of 0.5 ml of 50 mM Tris, 5 mM EDTA, pH 7.4. All binding reactions were terminated by filtration under vacuum onto polyethylenimine (0.3%) presoaked Unifilters (PerkinElmer Life Sciences) or Whatman GF/B filters (Whatman, Clifton, N.J.) followed by three brief washes with 4 ml of ice-cold TE buffer. Bound radiolabel was determined by liquid scintillation counting. For all of the radioligand competition binding assays, IC50 values and Hill slopes were determined by Hill transformation of the data and Ki values were determined by the Cheng-Prusoff equation.

neuropathic pain = test: Chung model: L5/L6 spinal nerve ligation, mechanical allodynia by von Frey filaments; format: in vivo, rat; conditions: 100 micromole/kg i.p., 30 minutes before testing
Method: Animals were prepared for testing, by use of a surgical procedure that induces neuropathic pain in one paw. Male Sprague Dawley rats were purchased from Charles River (Portage, Mich.). Prior to surgery, animals were housed in groups and maintained in a temperature-regulated environment. Following nerve ligation surgery, animals were housed in groups, and had access to food and water ad libitum.
The L5 and L6 spinal nerves of anesthetized rats were tightly ligated in a manner described previously (see Kim and Chung, Pain (1992) vol. 50 pp. 355-363). An incision was made on the dorsal portion of the hip and the muscle was blunt-dissected to reveal the spinal processes. The L6 transverse process was removed, and the left side L5 and L6 spinal nerves were tightly ligated with 5.0 braided silk suture. The wound was cleaned, the membrane sewn with 4.0 dissolvable Vicryl suture and the skin closed with wound clips. The paw affected by the surgical procedure (the left paw) develops an allodynic response, a hypersensitivity to mechanical and other stimuli; neuropathic pain is assessed as an increased sensitivity in the surgically affected (left) allodynic paw compared to the control paw on the right side, and measured by comparing the response of the (left side) allodynic paw to the response of the unaffected right side control paw.
For the assessment of neuropathic pain, mechanical allodynia in the affected paw of animals that had undergone spinal nerve ligation was evaluated using testing with von Frey filaments. As described previously by S. R. Chaplan, et al (“Quantitative assessment of tactile allodynia in the rat paw” J. Neurosci. Meth. (1994) vol. 53 pp. 55-63), two weeks following surgery rats were acclimated to a testing box constructed of plexiglass with a wire mesh floor which allowed access to the plantar surface of the animal's hindpaws. Using an Up-Down method (Dixon, Annual Rev. Pharmacol. Toxicol. (1980) vol. 20, pp. 441-462; Chaplan et al. “Quantitative assessment of tactile allodynia in the rat paw” J. Neuroscience Methods (1994) vol. 53 pp. 55-63), von Frey filaments of increasing stiffness were applied to the plantar surface of the hindpaws and the withdrawal response of the animals was observed; for the surgically affected paw with neuropathic pain (the left side paw) the baseline level of allodynia has a withdrawal threshold of ≦4 g of pressure. By comparison, for the control paw without allodynia (in this case the right side paw), the typical withdrawal pressure is around 15 g. Representative compounds of the invention, administered intraperitoneally 30 minutes before testing, are able to reduce the symptoms of neuropathic pain and induce a dose-dependent increase in the withdrawal threshold for allodynic (left side) limb, up to a maximum effect of 15 g. The efficacy of the compound in reducing neuropathic pain at different doses is determined by comparing response in the surgery-affected paw versus the response in the control paw. This is expressed as the MPE (maximum percent effect), or 100 times the withdrawal threshold of the allodynic (left side) divided by the withdrawal threshold of the control (right side).

inflammatory pain = test: Carrageenan-induced thermal hyperalgesia, hotbox assay; format: in vivo; conditions: 90 minutes after carrageenan, tested 30 minutes after dosing
Method: To assess the effectiveness of representative compounds of the invention against acute model inflammatory pain, animals were tested in an acute model of carrageenan-induced thermal hyperalgesia (see for example, Honore, et al. Behavioural Brain Research 167 (2006) 355-364; Porreca, et al. Journal of Pharmacology and Experimental Therapeutics (2006) vol. 318 pp. 195-205). Carrageenan was injected into the test paw of the animal, and after 90 minutes, the test drug was administered by intraperitoneal dosing. The effect on thermal hyperalgesia was assessed in a hotbox assay which was done 30 minutes after the intraperitoneal dosing of the test drug, and the MPE (maximal percent effect) reported by comparison to the control paw (not injected with carrageenan), according to 100 times the withdrawal latency of the carrageenan injected paw (in seconds) divided by the withdrawal latency of the control (not injected with carrageenan) paw.

[3] = tested on: mechanical allodynia after skin incision; test: Surgical skin incision model, mechanical allodynia by von Frey hair; format: in vivo, rat
Method: This is a surgical skin incision model (Joshi, et al. Pain 123 (2006) 75-82). Animals (rats) were prepared for testing by subjecting them to a surgical procedure carried out under sterile conditions, where the plantaris muscle was elevated and incised longitudinally with the origin and insertion of the muscle remaining intact. The skin was then closed with two mattress sutures (e.g. 5-0 nylon sutures). After surgery, animals were allowed to recover on a warming plate and housed individually in cages with soft bedding. […] Animals were tested for mechanical allodynia using von Frey hair mechanical stimulation 2, 24, and 48 h after surgery as described for the Chung model.

osteoarthritis pain = test: MIA-induced knee joint osteoarthritis model, hind limb grip force; format: in vivo, rat; conditions: 100 micromole/kg i.p.; grip force 20 days after MIA; % return to normalcy vs naïve group
Method: Unilateral knee joint osteoarthritis was induced in rats by a single intra-articular (i.a.) injection of sodium monoiodoacetate (MIA) (Sigma-Aldrich, St. Louis, Mo.) (3 mg in 50 ul sterile isotonic saline) into the right knee joint cavity under light (1-3%) isoflurane anesthesia.
Pain behavior was assessed by measurement of hind limb grip force (GF) in adult osteoarthritic rats. Following the unilateral injection of MIA (male Sprague Dawley, 325-350 g, tested at 20 days following MIA injection), a behavioral measure of activity-induced pain was carried out. Measurements of the peak hind limb grip force were conducted by recording the maximum compressive force (CFmax), in grams of force, exerted on a hind limb strain gauge setup, in a commercially available grip force measurement system (Columbus Instruments, Columbus, Ohio).
During testing, each rat was gently restrained by grasping it around its rib cage and then allowed to grasp the wire mesh frame attached to the strain gauge. The experimenter then moved the animal in a rostral-to-caudal direction until the grip was broken. Each rat was sequentially tested twice at approximately 2-3 min interval to obtain a raw mean grip force (CFmax). This raw mean grip force data was in turn converted to a maximum hindlimb cumulative compressive force (CFmax), as the grams of force/kg of body weight, for each animal.
For evaluating the compound effects, the hind limb grip force was conducted 20 days following the intra-articular injection of MIA. A group of age-matched naïve (not injected with MIA) animals was added as a comparator to the drug-dosed groups. The vehicle control response for each group of MIA-treated animals was defined as the 0% response (0% effect), whereas the naïve control group was defined as the normal response and as 100% effect. The % effects for each dose group was expressed as % return of response to normalcy, compared to the naïve group. That is, the % effect=(Treatment CFmax−Vehicle CFmax)/[…]]×100). All experiments evaluating drug effects in this model were conducted in a randomized blinded fashion.

[4] = displacement of [3H]-histamine, 25° C., 1 h, read-out: Potency in Competition Binding Assay

For CN1CCN(c2cc(-c3cccnc3)nc(N)n2)CC1.O=C(O)/C=C\C(=O)O [Example 2, 4-(4-Methylpiperazin-1-yl)-6-(pyridin-3-yl)pyrimidin-2-amine, maleate], the MPE (thermal hyperalgesia; 30 micromole/kg i.p.) was 51%, the MPE (thermal hyperalgesia; 100 micromole/kg i.p.) was 83% and the melting point was 175 to 178 °C (dec.). The “Potency in the FLIPR assay” value (histamine H4 receptor [1]) was 200 nM and the Ki (histamine H4 receptor [2]; [4]) was 178 nM.

For Nc1nc2c(c(N3CC[C@@H](N)C3)n1)CCCc1ccccc1-2 [Example 4, 4-((3R)-3-Amino-pyrrolidin-1-yl)-6,7-dihydro-5H-benzo[6,7]cyclohepta[1,2-d]pyrimidin-2-ylamine], the MPE (neuropathic pain) was 47% and the MPE (inflammatory pain; 100 micromole/kg i.p.) was 68%.

In the case of Nc1nc2c(c(N3CCNCC3)n1)CCCc1ccccc1-2 [Example 5, 4-piperazin-1-yl-6,7-dihydro-5H-benzo[6,7]cyclohepta[1,2-d]pyrimidin-2-ylamine], the MPE (neuropathic pain) is reported as 28%, the “Potency in the FLIPR assay” value (histamine H4 receptor [1]) is reported as 15 nM and the MPE (inflammatory pain; 100 micromole/kg i.p.) is reported as 23%. It also gave a Ki (histamine H4 receptor [2]; [4]) of 80 nM.

With O=S(=O)(NCCc1c[nH]cn1)NCc1ccc(Cl)c(Cl)c1 [Example 7, Sulfamide, N-[(3,4-dichlorophenyl)methyl]-N′-[2-(1H-imidazol-4-yl)ethyl]-] the MPE ([3]; 3 micromole/kg i.p.) was 33%, the MPE ([3]; 10 micromole/kg i.p.) was 50% and the “% Effect” value (osteoarthritis pain) was 22%. The “Potency in the FLIPR assay” value (histamine H4 receptor [1]) was 34 nM, the MPE (inflammatory pain; 3 micromole/kg i.p.) was 33% and the MPE (inflammatory pain; 10 micromole/kg i.p.) was 42%. The MPE (inflammatory pain; 30 micromole/kg i.p.) was 93% and the Ki (histamine H4 receptor [2]) was 33 nM.
